Results: the METLIN SMRT retention time set (Domingo-Almenara et al. 2019)

Assay: gradient 5% acetonitrile 3 min, to 50% in 2 min, to 85% in 15 min, held 3 min, 100 µL/min
Settings: column: Zorbax Extend-C18 2.1 x 50 mm; eluents: water / acetonitrile, 0.1% formic acid
Method in brief: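 A Zorbax Extend-C18 column (2.1 × 50 mm, 1.8 μm) run at 100 μL/min with water and acetonitrile, both containing 0.1% formic acid, separated mixtures of ~100 pure standards. The HPLC was coupled to a quadrupole time-of-flight mass spectrometer operated in positive and negative ionization mode, with dead and dwell volumes of 40 μL and 900 μL. Each retention time was taken from a computationally picked adduct peak that was then manually inspected.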

| RP-LC retention time | Structure (SMILES) |
| --- | --- |
| 1020 s | Cc1cccc(-c2noc(C3CCCN3C(=O)Nc3ccccc3F)n2)c1 (stereo unspecified) |
| 1150 s | COc1ccc(CCNS(=O)(=O)c2cccc(-c3nc(-c4ccc(C)cc4)no3)c2)cc1OC |
| 648 s | CCOC(=O)CNC(=O)NCCc1nc2cccnc2n1Cc1ccccc1 |
| 660 s | O=C(NC1COc2ccccc2C1)N1CCOCC1 (stereo unspecified) |
| 848 s | Cc1ccc(N2CC(C(=O)Nc3cc(-c4nc(C)cs4)sc3C)CC2=O)cc1 (stereo unspecified) |
| 660 s | Cn1c(N2CCCN(C(=O)c3ccc(F)c(F)c3)CC2)cc(=O)n(C)c1=O |
| 808 s | CCS(=O)(=O)N1CCCc2cc(C(=O)NCC(C)C)ccc21 |
| 728 s | CCCNC(=O)C1CCN(c2ccc(SCC(=O)Nc3ccc(C(F)(F)F)cc3)nn2)CC1 |
| 588 s | COc1ccc(OC)c(S(=O)(=O)NCCN2CCN(c3ccccc3F)CC2)c1 |
| 616 s | O=C(c1ccc(CS(=O)(=O)c2ccc(Br)cc2)o1)N1CCN(c2ccccn2)CC1 |
| 619 s | COc1cc(-c2oc3cc(O)cc(O)c3c(=O)c2O[C@@H]2O[C@H](CO)[C@@H](O)[C@H](O)[C@H]2O)cc(OC)c1O |
| 1200 s | CCOc1ccc(C(=O)Nc2nc3c(s2)CCc2ccccc2-3)cc1 |
| 897 s | CCn1c(SCC(=O)Nc2nc(-c3ccccc3)cs2)nnc1-c1nonc1NC(C)=O |
| 647 s | CC(C)C(=O)Nc1ccc(-n2cnc(C(=O)NCC3CCCO3)c2)nc1 (stereo unspecified) |
| 907 s | Cc1ccc(S(=O)(=O)N2CCC(CC(=O)NC(C)Cc3ccco3)CC2)cc1 (stereo unspecified) |
| 788 s | CCOC(=O)N1CCC(c2nnc(Cc3ccc(OC)cc3)s2)CC1 |
| 728 s | O=C(NCc1ccc(N2CCOCC2)cc1)C1CCCN(c2cnc3nccnc3c2)C1 (stereo unspecified) |
| 928 s | O=S(=O)(c1ccccc1)N1CCCC(c2nnnn2-c2ccccc2)C1 (stereo unspecified) |
| 610 s | COc1ccc(NC(=O)N2CCC(n3cnnc3C3CC3)C2)c(OC)c1 (stereo unspecified) |
| 576 s | O=C(N[C@@H]1CN(C(=O)C2CC2)CC[C@@H]1CO)C1CC1 |
| 809 s | Cc1ccn2c(Nc3ccccc3C)c(-c3ccc(N(C)C)cc3)nc2c1 |
| 900 s | CCCN1C(=O)c2c(C(=O)NCCc3ccccc3C)ncn2CC1(C)C(=O)NCCC(C)C (stereo unspecified) |

| RP-LC retention time | Structure (SMILES) |
| --- | --- |
| 1250 s | O=C(Nc1ccccc1F)c1c(O)c2cccnc2n(-c2cccc(F)c2)c1=O |
| 861 s | Cc1nc(Nc2ccc(F)cn2)sc1C(=O)NC(C)c1ccccc1 (stereo unspecified) |
| 818 s | COc1cccc(NC(=O)NC2CCN(c3ccc(F)c(C)c3)C2=O)c1 (stereo unspecified) |
| 1210 s | Cc1cc(C)c(-c2csc(Nc3ccc(F)cn3)n2)cc1C |
| 710 s | COCc1nc2cccnc2n1C1CCN(C(=O)Nc2cc(C)ccc2C)CC1 |
| 1100 s | COc1cccc(-c2nc(C3CC(=O)N(c4ccc(F)c(Cl)c4)C3)no2)c1 (stereo unspecified) |
| 712 s | CC(C(=O)Nc1ccc2c(c1)OCCO2)n1cnc2nc3c(cc2c1=O)CCCC3 (stereo unspecified) |
| 635 s | O=C(C1CCCN(c2ccc(N3CCOCC3)nn2)C1)N1CCN(c2ccccc2)CC1 (stereo unspecified) |
| 820 s | COc1ccccc1C(=O)N1C[C@H](c2nc(-c3ccccc3)no2)[C@@H](C)C1 |
| 762 s | Cc1noc(-c2nn(C)c3c2CN(C(=O)Cc2ccc(Cl)cc2)CC3)n1 |
| 749 s | CCCN(CCC)CCCNC(=O)C1CCCN(c2ncc(-c3ccc(F)cc3)cn2)C1 (stereo unspecified) |
| 1110 s | Cc1ccc(C)c(N2CCN(C(=O)Cn3ccc4ccc(N5CCOCC5)nc43)CC2)c1 |
| 787 s | Cc1nc(-c2ccc(N3CCN(C(=O)Nc4ccc(F)cc4)CC3)cc2)no1 |
| 618 s | O=c1nc(-c2ccccc2)c2ccccc2[nH]1 |
| 748 s | CCOc1ccc(C(=O)NC2CCN(c3cc(-c4ccccc4)[nH]n3)C2)cc1OCC (stereo unspecified) |
| 969 s | Cc1noc(C)c1-c1ccc(S(=O)(=O)Nc2ccc(F)c(Cl)c2)cc1 |
| 811 s | Cc1ccccc1CNC(=O)CCc1nnc2c3cc(-c4ccc(F)cc4)nn3ccn12 |
| 1240 s | O=C(Nc1ccc(Br)cc1)C1CCCN(c2ncc(-c3ccc(F)cc3)cn2)C1 (stereo unspecified) |
| 753 s | Cc1ccc(NC(=O)c2nc(C)oc2C)c(C)c1 |
| 1030 s | CCn1nnc2ccc(-c3noc(Cc4ccccc4C)n3)cc21 |
| 1020 s | Cc1ccc(-c2nc(-c3cccc(-c4ccn[nH]4)c3)no2)s1 |
| 648 s | O=C(NCCCOc1cccc2cccnc12)c1cc(=O)c2ccccc2o1 |

| RP-LC retention time | Structure (SMILES) |
| --- | --- |
| 800 s | Cc1cccc(Cn2c(CN3CCC(C(=O)NCCc4ccco4)CC3)cc3ccccc32)c1 |
| 689 s | CCOc1ccc(NC(=O)N2CCCC(Cn3c(C4CC4)nc4cccnc43)C2)cc1 (stereo unspecified) |
| 648 s | CCOC(=O)c1noc2nc(C)nc(NC3CCN(Cc4ccccc4)CC3)c12 |
| 609 s | CCNC(=O)c1ccc2c(c1)CCN2C(C)=O |
| 739 s | CCN(c1ccccc1)S(=O)(=O)c1cc(-c2[nH]ncc2C(=O)N(C)C)oc1C |
| 598 s | CCOC(=O)c1cc(S(=O)(=O)N2CCN(c3ccccn3)CC2)[nH]n1 |
| 934 s | COc1ccc(-c2noc(CN3C(=O)COc4ccc(C)cc43)n2)cc1OC |
| 909 s | COc1ccc(-c2cc(C(=O)N3CCN(S(=O)(=O)c4ccc(Cl)cc4)CC3)[nH]n2)cc1 |
| 665 s | COc1ccc(C2(C(=O)N3C[C@@H](CO)[C@H](c4nc(C)no4)C3)CC2)cc1 |
| 1020 s | Cc1cn2c(S(=O)(=O)N3CCCCC3)c(C(C)C)nc2s1 |
| 757 s | COc1ccccc1N1CCN(Cc2nc(-c3ccc(N4CCCCC4)nc3)no2)CC1 |
| 879 s | O=C(Cn1ccc2ccc(N3CCOCC3)nc21)N1CCN(c2ccccc2)CC1 |
| 1160 s | CCOc1ccc(-c2noc(Cn3nc(-c4ccc(C)cc4)ccc3=O)n2)cc1 |
| 916 s | Cc1ccc(C(=O)N2CCC(COc3ccc(C(=O)NC(C)C)cc3)CC2)cc1C |
| 570 s | O=C(CC1CCOC2(CCN(Cc3ccsc3)CC2)C1)N1CCOCC1 (stereo unspecified) |
| 855 s | C=CCNc1ncnc2sc(SC)nc12 |
| 764 s | CCOc1ccc(NC(=O)N2CCC(c3nc(C(=O)N4CCCC4)c(C)o3)CC2)cc1 |
| 771 s | COc1cccc(-n2c(N3CCCC(C(=O)NCC4CC4)C3)nc3ccsc3c2=O)c1 (stereo unspecified) |
| 860 s | CCn1c(C(=O)NCCc2ccc(S(N)(=O)=O)cc2)cc2sc(Cl)cc21 |
| 1000 s | CCC(c1cccs1)N1C(=O)[C@H]2CN(S(=O)(=O)Cc3ccccc3F)C[C@H]2C1=O (stereo partly specified) |
| 1010 s | Cn1cc(C(=O)NCc2cc(F)cc(F)c2)c(S(=O)(=O)N2CCSCC2)n1 |

| Structure (SMILES) | RP-LC retention time |
| --- | --- |
| CC(C)CN1Cc2ccccc2-n2ccnc2C12CCN(C(=O)c1ccoc1)CC2 | 665 s |
